# Measured values published in patent US6863897B2, “Stabilization of resorcinol derivatives in cosmetic compositions” (Unilever Home & Personal Care USA, division of Conopco, Inc., priority 2002, dated 2005).
# Test: Storage color stability of resorcinol formulations with and without micronized TiO2 (chromameter CIE L*)
# Type: physicochemical
# Parameters: key: difference in CIE L* (lightness) values, with TiO2 minus without
# Conditions: 45° C. oven, glass amber jars, 0.2% micronized TiO2 (MT-100Z), resorcinol content 2.17 milli-M
# Procedure: In this experiment, the storage stability in terms of color change of resorcinol derivatives time was measured with and without the presence of metal oxides.
# The color stabilization of formulations of containing 4-substituted resorcinol derivatives by TiO2 was assessed by measuring the chromameter L* value (Luminance, or lightness) of the different formulations over time. A decrease in L* over time represents a darkening of the formulations as color develops from the white starting formulation due to decomposition of the resorcinol derivative. In Table 5 below, the ΔL value between formulations with and without TiO2 indicates the magnitude of color difference between the comparative samples. […] Thus, one can see that TiO2 has a large color-stabilizing effect, particularly on the formulations containing 4-substituted resorcinols.
# The cosmetic compositions of Examples 5 to 8 in the Table above were stored and tested for stability in terms of discoloration. The resorcinol and 4-substituted resorcinol derivatives in these examples had equal molar content, i.e., 2.17 milli-M. A comparative composition, example 8, was made by eliminating resorcinol or its derivatives from the compositions of examples 5 to 8. The product formulations were stored for 56 days in glass amber jars of 120 ml volume in an oven at 45° C.
# Procedure for Measuring CIE L*a*b* Color of Cosmetic Formulations
# A film is created by applying a composition evenly to an UV-Transparent quartz plate (4″×4⅛″×⅛″) with a spatula. An 8-path wet film applicator from Paul Gardner Company, Inc. with a 3″ path width is used. The applicator is manually drawn across the plate for a […] thickness.
# The plate is flipped over with the thin film facing the bench top and suspended 1½″ above a black benchtop (L*a*b* reading of the benchtop is L*=27.5, a*=0.5, b*=−0.6). Then a hand held Minolta CR10 chromameter is calibrated on a white Calibration Color tile (L 98.2, a 0.2, b 1.2). The chromameter is then placed on the top of the plate and three readings of the Commission Internationale de l'Eclairage (CIE) L*a*b* color system are taken. • L*=Black to white (luminance) from 0 to 100 [L*=0 represents Black] • a*=green to red from −60 to +60 • b*=blue to yellow from −60 to +60
# The formulation thin film L* values were used in the present analysis. For each data collection the average value for the three readings was used at 0, 14, 28, and 56 days.
Base-adjusted ΔL with TiO2 - ΔL without TiO2 for the resorcinol formulations (storage time 0 day),Base-adjusted ΔL with TiO2 - ΔL without TiO2 for the resorcinol formulations (storage time 14 days),Base-adjusted ΔL with TiO2 - ΔL without TiO2 for the resorcinol formulations (storage time 28 days),Base-adjusted ΔL with TiO2 - ΔL without TiO2 for the resorcinol formulations (storage time 56 days),SMILES
0,12.0,4.6,7.6,"CCc1ccc(O)cc1O [4-Ethyl resorcinol, 4-ethyl resorcinol]"
0,7.7,0.1,3.7,"CCCCCCc1ccc(O)cc1O [4-Hexyl resorcinol, 4-hexyl resorcinol]"
0,0.9,−2,1.1,Oc1cccc(O)c1 [Resorcinol]
